Results from US10344061B2, “Peptide exhibiting hair growth promoting activity and/or melanin production promoting activity and use thereof” (CAREGEN CO., LTD., priority 2016, dated 2019).
Ends that are not written are not given here.

Assays:
Type in all cases: cell-based
ERK = assay: p-ERK western blotting; settings: human hair follicle dermal papilla cells, 15 and 30 minutes, FIGS. 3a, 3b
Protocol: (§1) Human hair follicle dermal papilla cells were seeded at a density of 4×10^5 cells/well on 6-well plates, followed by incubation overnight. After changing into serum-free medium, the cells were treated with the peptides, followed by incubation for 15 and 30 minutes, and then the wells were harvested to prepare the cell lysate. Western blotting was performed using PI3K antibodies (Santa Cruz Biotechnology, USA) and phospho-ERK antibody (Cell Signaling Technology, USA) to compare protein expression patterns.

Bax = Bax western blotting; settings: human hair follicle dermal papilla cells, 24 hours, FIGS. 4a, 4b
Protocol: as §1, with “plate,” for “plates,”, “24 hours,” for “15 and 30 minutes,”, “prepare” for “prepare the”, “Bcl-2 and Bax” for “PI3K”, “Biotechnology,” for “Biotechnology, USA) and phospho-ERK antibody (Cell Signaling Technology,”

[1] = test system: melanocytes (B16F10 cell line); assay: Melanin measurement assay; settings: 72 hours, intracellular melanin, absorbance 490 nm, FIGS. 9a, 9b
Protocol: After melanocytes (B16F10 cell line) in 6-well plates were cultured in an incubator at 37° C. for 24 hours, the medium of each plate was removed and exchanged with a fresh medium, followed by treatment with the present peptide with different concentrations. After the incubation for 72 hours, the culture medium was removed, and the cells were taken off and then transferred into 1.5-ml tubes, followed by centrifugation at 13,000 rpm for 3 minutes. The supernatant was removed, and cell pellets were collected to observe melanin. Then, 150 μl of 2 M NaOH was added to the cell pellets to lyse intracellular melanin at 60° C. for 30 minutes. Then, 100 μl of the supernatant obtained from the lysis was added into each well of 96-well plates, and the absorbance was measured at 490 nm.

β-catenin = assay: β-Catenin activity test (western blotting); settings: human hair follicle dermal papilla cells, 15 and 30 minutes, nuclear and cytoplasmic proteins, FIGS. 2a, 2b
Protocol: as §1, with “isolate nuclear and cytoplasmic proteins.” for “prepare the cell lysate.”, “β-catenin” for “PI3K antibodies”, “USA)” for “USA) and phospho-ERK antibody (Cell Signaling Technology, USA)”, “β-catenin” for “protein”

PI3K = PI3K western blotting; settings: human hair follicle dermal papilla cells, 15 and 30 minutes, FIGS. 3a, 3b
Protocol: as §1

Bcl-2 = Bcl-2 western blotting; settings: human hair follicle dermal papilla cells, 24 hours, FIGS. 4a, 4b
Protocol: as §1, with “plate,” for “plates,”, “24 hours,” for “15 and 30 minutes,”, “prepare” for “prepare the”, “Bcl-2 and Bax” for “PI3K”, “Biotechnology,” for “Biotechnology, USA) and phospho-ERK antibody (Cell Signaling Technology,”

keratin-14 = assay: Keratin-14 RT-PCR; settings: human hair follicle dermal papilla cells, 24 hours, FIGS. 5a, 5b
Protocol: (§2) Human hair follicle dermal papilla cells were seeded at a density of 5×10^5 cells/well on 6-well plates, followed by incubation overnight. After changing into serum-free medium, the cells were treated with the peptides, followed by incubation for 24 hours, and then the wells were harvested to isolate RNA. After RNA quantification, cDNA synthesis was conducted using the cDNA synthesis kit (Intron, Korea), followed by PCR using PCR premix (Intron, Korea) and keratin-14 primers, and then electrophoresis was performed on 5% agarose gel to compare the mRNA expression level of the growth factor in respective sample treatment conditions.

[2] = test system: Human hair follicle dermal papilla cells; assay: DPC proliferation assay (MTT); settings: serum-free medium, 3 days incubation, absorbance 550 nm, FIGS. 1a, 1b
Protocol: Human hair follicle dermal papilla cells were seeded at a density of 2×10^3 cells/well on 96-well plates, followed by incubation overnight. After changing into serum-free medium, the cells were treated with the peptides, followed by incubation for 3 days, and then the wells were treated with 4 mg/ml MTT solution, followed by reaction for 4 hours. The resulting formazan was solubilized with DNSO, and then the absorbance was measured at 550 nm using a microplate reader.

GSK3β = assay: β-Catenin activity test: GSK3β phosphorylation; settings: human hair follicle dermal papilla cells, 15 and 30 minutes, western blotting; FIGS. 2a, 2b
TGF-β1 = TGF-β1 RT-PCR; settings: human hair follicle dermal papilla cells, 24 hours, RT-PCR (mRNA); FIG. 7
Protocol: as §2, with “4×10^5” for “5×10^5”, “plate,” for “plates,”, “TGF-β1” for “keratin-14”, “in” for “in respective”

MITF [3] = assay: Melanogenesis-related protein western blotting: MITF; settings: B16F10 cell line, 72-hour incubation, FIG. 11
Protocol: (§3) Melanocytes (B16F10 cell line) were incubated on 6-well culture plates for 24 hours, and were treated with the peptides of the present invention with different concentrations. After 72-hour incubation, the cells were lysed, and the cells were subjected to western blotting using specific antibodies (two types, both from Santa Cruz Biotechnology, USA) to investigate the expression of MITF and tyrosinase, which are factors involved in melanogenesis.

TRP1 = assay: Melanogenesis-related gene RT-PCR: TRP1; settings: B16F10 cell line, 72 hours, FIG. 10 legend
tyrosinase [4] = assay: Melanogenesis-related protein western blotting: tyrosinase; settings: B16F10 cell line, 72-hour incubation, FIG. 11
Protocol: as §3

KGF = KGF RT-PCR; settings: human hair follicle dermal papilla cells, 24 hours, RT-PCR (mRNA); FIG. 6
Protocol: as §2, with “4×10^5” for “5×10^5”, “plate,” for “plates,”, “respective KGF and VEGF” for “keratin-14”, “levels” for “level”, “factors” for “factor”, “in” for “in respective”

tyrosinase [5] = assay: Melanogenesis-related gene RT-PCR: tyrosinase; settings: B16F10 cell line, 72 hours, FIG. 10
Protocol: (§4) Melanocytes (B16F10 cell line) were incubated on 6-well culture plates for 24 hours, and were treated with the peptides of the present invention with different concentrations. After RNA was extracted from the cells incubated for 72 hours, cDNA was prepared. PCR was performed by using respective primers specific to MITF and tyrosinase, which are involved in melanogenesis, and the expression changes of the respective genes were observed.

VEGF = VEGF RT-PCR; settings: human hair follicle dermal papilla cells, 24 hours, RT-PCR (mRNA); FIG. 6
Protocol: as §2, with “4×10^5” for “5×10^5”, “plate,” for “plates,”, “respective KGF and VEGF” for “keratin-14”, “levels” for “level”, “factors” for “factor”, “in” for “in respective”

MSX2 = MSX2 RT-PCR; settings: human hair follicle dermal papilla cells, 24 hours, RT-PCR (mRNA); FIG. 8
Protocol: as §2, with “4×10^5” for “5×10^5”, “plate,” for “plates,”, “MSX2” for “keratin-14”, “in” for “in respective”

MITF [6] = assay: Melanogenesis-related gene RT-PCR: MITF; settings: B16F10 cell line, 72 hours, FIG. 10
Protocol: as §4

Row | Sequence | phosphorylation of ERK (ERK) | expression of the apoptosis-related protein Bax (Bax) | melanogenesis in melanocytes [1] | activity of β-catenin (β-catenin) | expression of PI3K (PI3K) | expression of the anti-apoptotic protein Bcl-2 (Bcl-2) | mRNA expression of keratin-14 (keratin-14) | growth of human hair follicle dermal papilla cells [2] | phosphorylation level of GSK3β (GSK3β) | expression of TGF-β1 (TGF-β1) | protein expression of MITF transcription factor (MITF [3]) | mRNA expression of TRP1 (TRP1) | protein expression of tyrosinase enzyme (tyrosinase [4]) | expression of KGF (KGF) | mRNA expression of tyrosinase enzyme (tyrosinase [5]) | expression of VEGF (VEGF) | expression of MSX2 (MSX2) | mRNA expression of MITF transcriptional factor (MITF [6])
1 | KYLLVHRPYYRR [SEQ ID NO: 2] | increased | decreased | increased | increased | increased | increased | increased | stimulated in a dose-dependent manner | increased | – | – | – | – | – | – | – | – | –
2 | ACTSSQLRSC (cysteine pairing not given here) [SEQ ID NO: 1] | increased | decreased | increased | increased | increased | increased | increased | stimulated in a dose-dependent manner | increased | increased | increased | increases | increased | increased | increased | increased | increased | increased
